This passage reports MIC results from DBAASP.

Some test systems named below: Candida albicans; Escherichia coli UB1005; Shigella dysenteriae; Bacillus megaterium; Klebsiella pneumoniae; Enterococcus faecalis; Acinetobacter baumannii; Pseudomonas aeruginosa; Staphylococcus aureus; Escherichia coli.
Common to all, as to assay: ≥ marks a high value that may be exact or a test limit, other limits are often not marked, values filed in µg/mL are converted to µM
For assay [1], the system named is Salmonella enterica serovar Typhimurium.
Assay [2] deals with Pseudomonas aeruginosa H103.
Assay [3] deals with Staphylococcus aureus ATCC 25923.
Assay [4] has as its system Staphylococcus epidermidis.
For assay [5], the system named is Enterococcus faecalis ATCC 29212.
Assay [6] has as its system Escherichia coli ATCC 25922.
In assay [7] the test system is Staphylococcus aureus ATCC 2592.
In assay [8] the test system is Pseudomonas aeruginosa CMCCB 10104.
Assay [9] deals with Candida albicans ATCC 2002.
In assay [10] the test system is Bacillus subtilis ATCC 23857.
Assay [11] relates to Staphylococcus aureus ATCC 29213.
The test system of assay [12] is Staphylococcus epidermidis ATCC 12228.
Assay [13] concerns Pseudomonas aeruginosa PAO1.
The test system of assay [14] is Pseudomonas aeruginosa ATCC 27853.

Usually MIC stands for the lowest concentration that inhibits growth of the organism.

In brackets after ≈: the same amount, converted by molar mass.

As for `CC[C@H](C)[C@H](NC(=O)[C@@H](N)Cc1ccccc1)C(=O)N[C@@H](CCCCN)C(=O)N[C@@H](Cc1c[nH]c2ccccc12)C(=O)N[C@@H](CCCCN)C(=O)N[C@@H](Cc1ccccc1)C(=O)N[C@@H](CCCN=C(N)N)C(=O)N[C@@H](Cc1c[nH]c2ccccc12)C(=O)N[C@@H](Cc1c[nH]c2ccccc12)C(=O)N[C@@H](CCCCN)C(=O)N[C@@H](Cc1c[nH]c2ccccc12)C(=O)N[C@@H](CCCN=C(N)N)C(=O)N[C@@H](CCCCN)C(=O)O` [FIKWKFRWWKWRK], the MIC is 1.5 µM (≈ 2.99 µg/mL) in assay [1]; 3 µM (≈ 5.99 µg/mL) against Candida albicans; 6 µM (≈ 12 µg/mL) in [2]; 0.7 µM (≈ 1.4 µg/mL) in assay [3]; 0.7 µM (≈ 1.4 µg/mL) in [4]; 1.5 µM (≈ 2.99 µg/mL) in [5]. Besides, the MIC with Escherichia coli UB1005 was determined as 1.5 µM (≈ 2.99 µg/mL).
In the case of `CC[C@H](C)[C@H](NC(=O)CN)C(=O)NCC(=O)NCC(=O)N[C@@H](CCCCN)C(=O)N[C@H](C(=O)N[C@@H](CC(C)C)C(=O)N[C@@H](CO)C(=O)NCC(=O)N[C@@H](CC(C)C)C(=O)N[C@@H](CCCCN)C(=O)N[C@H](C(=O)N[C@@H](C)C(=O)N[C@@H](CC(C)C)C(=O)N[C@@H](CCCCN)C(=O)NCC(=O)N[C@@H](C)C(=O)N[C@@H](C)C(=O)N[C@@H](CCCCN)C(=O)N[C@@H](CCC(=O)O)C(=O)N[C@@H](CC(C)C)C(=O)N[C@@H](C)C(=O)N[C@@H](CO)C(=O)N[C@H](C(=O)N[C@@H](Cc1ccc(O)cc1)C(=O)N[C@@H](CC(C)C)C(=O)N[C@@H](Cc1cnc[nH]1)C(=O)O)[C@@H](C)O)[C@@H](C)O)[C@@H](C)CC` [GIGGKILSGLKTALKGAAKELASTYLH], the MIC stood at 0.334 µM (≈ 0.9 µg/mL) in the assay on Shigella dysenteriae; 0.334 µM (≈ 0.9 µg/mL) in the assay with Bacillus megaterium; 0.334 µM (≈ 0.9 µg/mL) in assay [6]; 1.15 µM (≈ 3.1 µg/mL) in [7]; 1.15 µM (≈ 3.1 µg/mL) with Klebsiella pneumoniae; 0.556 µM (≈ 1.5 µg/mL) in [8]. Also, in [9], the MIC turned out to be 5.56 µM (≈ 15 µg/mL).
For `CC[C@H](C)[C@H](NC(=O)CN)C(=O)NCC(=O)NCC(=O)N[C@H](C(=O)N[C@@H](CC(C)C)C(=O)N[C@@H](CC(C)C)C(=O)N[C@@H](CO)C(=O)N[C@@H](C)C(=O)NCC(=O)N[C@@H](CCCCN)C(=O)N[C@@H](C)C(=O)N[C@@H](C)C(=O)N[C@@H](CC(C)C)C(=O)N[C@@H](CCCCN)C(=O)NCC(=O)N[C@@H](CC(C)C)C(=O)N[C@@H](C)C(=O)N[C@@H](CCCCN)C(=O)N[C@H](C(=O)N[C@@H](CC(C)C)C(=O)N[C@@H](C)C(=O)N[C@@H](CCC(=O)O)C(=O)N[C@@H](CCCCN)C(=O)N[C@@H](Cc1ccc(O)cc1)C(=O)N[C@@H](C)C(=O)N[C@@H](CC(N)=O)C(N)=O)C(C)C)C(C)C` [GIGGVLLSAGKAALKGLAKVLAEKYAN], the MIC in the assay on Shigella dysenteriae was determined as 1.03 µM (≈ 2.7 µg/mL); against Bacillus megaterium, 0.574 µM (≈ 1.5 µg/mL); in assay [6], 1.03 µM (≈ 2.7 µg/mL); in assay [7] it was 1.03 µM (≈ 2.7 µg/mL); with Klebsiella pneumoniae it was 5.74 µM (≈ 15 µg/mL); in assay [8], 1.03 µM (≈ 2.7 µg/mL). In [9], this molecule had an MIC of 5.74 µM (≈ 15 µg/mL).
With `CC[C@H](C)[C@H](NC(=O)CN)C(=O)N[C@H](C(=O)N[C@@H](C)C(=O)NCC(=O)N[C@@H](C)C(=O)N[C@H](C(=O)N[C@H](C(=O)N[C@@H](CCCCN)C(=O)N[C@H](C(=O)N[C@@H](CCCCN)C(=O)N[C@@H](CCCCN)C(N)=O)[C@@H](C)CC)[C@@H](C)CC)[C@@H](C)CC)[C@@H](C)CC` [GIIAGAIIKIKK], the results for the MIC in [6] and in assay [10] were 64 µM (≈ 78.3 µg/mL) and at least 32 µM, respectively.
Consider `CC[C@H](C)[C@H](N)C(=O)N[C@@H](CC(=O)O)C(=O)N[C@@H](Cc1c[nH]c2ccccc12)C(=O)N[C@@H](CCCCN)C(=O)N[C@@H](CCCCN)C(=O)N[C@@H](CC(C)C)C(=O)N[C@@H](CC(C)C)C(=O)N[C@@H](CC(=O)O)C(=O)N1CCC[C@H]1C(=O)N[C@@H](C)C(=O)N[C@@H](CCCCN)C(=O)N[C@@H](CCC(N)=O)C(=O)N[C@H](C(=O)N[C@@H](CC(C)C)C(N)=O)[C@@H](C)CC` [IDWKKLLDPAKQIL], for which the MIC in assay [6] is 256 µM (≈ 430 µg/mL); in assay [11], 1020 µM (≈ 1720 µg/mL); in assay [10], at least 128 µM; in [12], 512 µM (≈ 860 µg/mL).
For the molecule `CC[C@H](C)[C@H](NC(=O)[C@H](CCCN=C(N)N)NC(=O)[C@H](Cc1ccccc1)NC(=O)[C@H](CCCN=C(N)N)NC(=O)[C@@H](N)CCCCN)C(=O)N[C@@H](CCCN=C(N)N)C(=O)N[C@H](C(=O)N[C@@H](CCCN=C(N)N)C(=O)N[C@H](C(=O)N[C@H](C(=O)N[C@@H](CCCN=C(N)N)C(=O)N[C@@H](CCCCN)C(N)=O)[C@@H](C)CC)C(C)C)C(C)C` [KRFRIRVRVIRK], the MIC in [1] stood at 1.84 µM (≈ 3 µg/mL); with Candida albicans, 7.38 µM (≈ 12 µg/mL); in [2] it was 3.69 µM (≈ 6 µg/mL); in assay [3], 3.69 µM (≈ 6 µg/mL); in assay [4] it was 0.492 µM (≈ 0.8 µg/mL); in [13] it was 7.38 µM (≈ 12 µg/mL). Also, in the assay with Escherichia coli UB1005, the MIC amounted to 0.983 µM (≈ 1.6 µg/mL).
On to `CC[C@H](C)[C@H](NC(=O)[C@@H](N)CCCN=C(N)N)C(=O)N[C@@H](CCCCN)C(=O)N[C@@H](CCCN=C(N)N)C(=O)N[C@@H](Cc1c[nH]c2ccccc12)C(=O)N[C@@H](Cc1c[nH]c2ccccc12)C(=O)N[C@@H](Cc1c[nH]c2ccccc12)C(=O)N[C@@H](Cc1c[nH]c2ccccc12)C(=O)N[C@@H](CCCN=C(N)N)C(=O)O` [RIKRWWWWR], for which the MIC in assay [1] was 2.7 µM (≈ 3.98 µg/mL); against Candida albicans, 5.4 µM (≈ 7.95 µg/mL); in assay [2] it was at least 86.3 µM; in [3], 1.3 µM (≈ 1.91 µg/mL); in assay [4], 1.3 µM (≈ 1.91 µg/mL); in assay [5], 10.8 µM (≈ 15.9 µg/mL). In the assay with Escherichia coli UB1005, the MIC is 2.7 µM (≈ 3.98 µg/mL).
With `CC[C@H](C)[C@H](NC(=O)CNC(=O)[C@H](CCCN=C(N)N)NC(=O)[C@H](Cc1ccc(O)cc1)NC(=O)[C@H](CC(C)C)NC(=O)[C@H](Cc1cnc[nH]1)NC(=O)CNC(=O)[C@H](Cc1ccccc1)NC(=O)[C@@H](N)Cc1c[nH]c2ccccc12)C(=O)N[C@H](C(=O)N[C@@H](CCCCN)C(=O)N[C@H](C(=O)N[C@H](C(=O)N[C@@H](CCCCN)C(=O)N[C@@H](Cc1cnc[nH]1)C(=O)N[C@H](C(=O)N[C@@H](Cc1cnc[nH]1)C(=O)NCC(=O)N[C@@H](CC(C)C)C(=O)N[C@@H](CC(C)C)C(=O)N[C@@H](CCCCN)C(=O)NCC(=O)O)C(C)C)C(C)C)C(C)C)[C@@H](C)O` [WFGHLYRGITKVVKHVHGLLKG], the MIC was 1.2 µM (≈ 3.06 µg/mL) against Enterococcus faecalis; 1.2 µM (≈ 3.06 µg/mL) with Acinetobacter baumannii; 4.9 µM (≈ 12.5 µg/mL) in the assay on Pseudomonas aeruginosa; 19.6 µM (≈ 49.9 µg/mL) in the assay on Staphylococcus aureus; 2.5 µM (≈ 6.37 µg/mL) against Escherichia coli; 1.2 µM (≈ 3.06 µg/mL) against Klebsiella pneumoniae. The molecule further yielded an MIC in assay [4] of 2.5 µM (≈ 6.37 µg/mL).
With `CC(C)C[C@H](NC(=O)[C@H](CC(C)C)NC(=O)[C@H](CCCCN)NC(=O)[C@H](CCCCN)NC(=O)[C@H](Cc1c[nH]c2ccccc12)NC(=O)[C@H](CCCN=C(N)N)NC(=O)[C@H](CCCCN)NC(=O)[C@H](CC(C)C)NC(=O)[C@H](CC(C)C)NC(=O)[C@@H](N)Cc1c[nH]c2ccccc12)C(N)=O` [WLLKRWKKLL], the MIC is 8 µM (≈ 11.1 µg/mL) in assay [14], 64 µM (≈ 88.5 µg/mL) in assay [6], 32 µM (≈ 44.3 µg/mL) in assay [3] and 16 µM (≈ 22.1 µg/mL) in assay [10].
Regarding `CC[C@H](C)[C@H](NC(=O)[C@H](Cc1ccc(O)cc1)NC(=O)[C@@H](NC(=O)[C@H](CCCN=C(N)N)NC(=O)[C@H](Cc1c[nH]c2ccccc12)NC(=O)[C@H](CCCN=C(N)N)NC(=O)[C@H](Cc1ccccc1)NC(=O)[C@H](CCCCN)NC(=O)[C@@H](N)Cc1ccc(O)cc1)[C@@H](C)CC)C(=O)O` [YKFRWRIYI], the MIC is at least 92.8 µM in assay [1]; above 92.8 µM in the assay on Candida albicans; at least 92.8 µM in [2]; 2.9 µM (≈ 3.9 µg/mL) in [3]; 1.4 µM (≈ 1.88 µg/mL) in assay [4]; 2.9 µM (≈ 3.9 µg/mL) in assay [5]. The MIC against Escherichia coli UB1005 was found to be 2.9 µM (≈ 3.9 µg/mL).
